SMILES strings stand for the structures. Some results are limits rather than exact numbers.

Test [1] concerns cGAS/STING pathway in THP1 cells. In words: THP1 cell-based cGAS/STING pathway activity assay (IRF-3-linked luciferase reporter). To be noted: Homo sapiens, THP-1. A digest of the protocol: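 THP1 cells carrying an IRF-3-driven luciferase reporter were read across a range of compound concentrations, and IC50 values were derived from these concentration responses; the assay upper limit was 100 μM.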

Test [2] has as its target Human cGAS amino acids 155-522 (Homo sapiens (Human), UniProt Q8N884). In words: cGAS biochemical activity assay (ATP remaining, Kinase-Glo Max luminescence). To be noted: human cGAS 155-522, ATP remaining (Kinase-Glo Max); read-out: cGAS IC50.

Human cGAS amino acids 155-522, sequence (Q8N884 157-522): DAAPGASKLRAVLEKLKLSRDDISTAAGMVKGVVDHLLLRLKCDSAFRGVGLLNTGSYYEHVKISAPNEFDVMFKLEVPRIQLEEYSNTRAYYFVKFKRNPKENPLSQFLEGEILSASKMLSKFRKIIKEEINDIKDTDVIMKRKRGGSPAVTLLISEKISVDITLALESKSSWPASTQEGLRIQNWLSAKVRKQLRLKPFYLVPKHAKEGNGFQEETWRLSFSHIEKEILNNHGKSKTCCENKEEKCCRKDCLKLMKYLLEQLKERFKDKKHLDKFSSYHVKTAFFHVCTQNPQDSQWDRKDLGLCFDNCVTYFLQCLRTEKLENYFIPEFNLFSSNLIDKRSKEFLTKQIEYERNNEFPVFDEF

Regarding `COc1cc(C(=N)N)cc2oc(-c3c(C)[nH]c4c(-c5ccccc5)c(C(F)(F)F)nn4c3=O)nc12` [Compound C1141, 4-methoxy-2-(5-methyl-7-oxo-3-phenyl-2-(trifluoromethyl)-4,7-dihydropyrazolo[1,5-a]pyrimidin-6-yl)benzo[d]oxazole-6-carboximidamide], the IC50 in test [1] is > 100 µM; in test [2], < 20 µM.

As for `Cc1[nH]c2c(-c3ccccc3)c(C(F)(F)F)nn2c(=O)c1-c1nc(CO)c(C(C)C)o1` [Compound C1143, 6-(4-(hydroxymethyl)-5-isopropyloxazol-2-yl)-5-methyl-3-phenyl-2-(trifluoromethyl)pyrazolo[1,5-a]pyrimidin-7(4H)-one], the IC50 was > 100 µM in test [1] and < 20 µM in test [2].

With `COc1cccc2oc(-c3c(COCC(=O)O)[nH]c4c(-c5ccccc5)c(C(F)(F)F)nn4c3=O)nc12` [Compound C1146, 2-((6-(4-methoxybenzo[d]oxazol-2-yl)-7-oxo-3-phenyl-2-(trifluoromethyl)-4,7-dihydropyrazolo[1,5-a]pyrimidin-5-yl)methoxy)acetic acid], the IC50 in test [1] is > 100 µM; in test [2] it was < 20 µM.

As to `COc1cc(C(N)=O)cc2oc(-c3c(C)[nH]c4c(-c5ccccc5)c(C(F)(F)F)nn4c3=O)nc12` [Compound C1149, 4-methoxy-2-(5-methyl-7-oxo-3-phenyl-2-(trifluoromethyl)-4,7-dihydropyrazolo[1,5-a]pyrimidin-6-yl)benzo[d]oxazole-6-carboxamide], the IC50 in test [1] was 20 to 100 µM; in test [2], < 20 µM.

For the compound `COc1cccc2oc(-c3c(COC4COC4)[nH]c4c(-c5ccccc5)c(C(F)(F)F)nn4c3=O)nc12` [Compound C1152, 6-(4-methoxybenzo[d]oxazol-2-yl)-5-((oxetan-3-yloxy)methyl)-3-phenyl-2-(trifluoromethyl)pyrazolo[1,5-a]pyrimidin-7(4H)-one], the IC50 is 20 to 100 µM in test [1] and < 20 µM in test [2].

Take `COCc1nc(-c2c(C)[nH]c3c(-c4ccccc4)c(C(F)(F)F)nn3c2=O)oc1C(C)C` [Compound C1153, 6-(5-isopropyl-4-(methoxymethyl)oxazol-2-yl)-5-methyl-3-phenyl-2-(trifluoromethyl)pyrazolo[1,5-a]pyrimidin-7(4H)-one]: the IC50 was 20 to 100 µM in test [1] and < 20 µM in test [2].

As for `COc1cc(C(=O)O)cc2oc(-c3c(C)[nH]c4c(-c5ccccc5)c(C(F)(F)F)nn4c3=O)nc12` [Compound C1155, 4-methoxy-2-(5-methyl-7-oxo-3-phenyl-2-(trifluoromethyl)-4,7-dihydropyrazolo[1,5-a]pyrimidin-6-yl)benzo[d]oxazole-6-carboxylic acid], the IC50 was 20 to 100 µM in test [1] and < 20 µM in test [2].

Regarding `Cc1[nH]c2c(-c3ccccc3)c(C(F)(F)F)nn2c(=O)c1-c1nc2ccc(N)cc2o1` [Compound C1156, 6-(6-aminobenzo[d]oxazol-2-yl)-5-methyl-3-phenyl-2-(trifluoromethyl)pyrazolo[1,5-a]pyrimidin-7(4H)-one], the IC50 is 20 to 100 µM in test [1] and < 20 µM in test [2].

As for `Cc1[nH]c2c(-c3ccccc3)c(C(F)(F)F)nn2c(=O)c1-c1nc(CO)c(C2CCCCC2)o1` [Compound C1157, 6-(5-cyclohexyl-4-(hydroxymethyl)oxazol-2-yl)-5-methyl-3-phenyl-2-(trifluoromethyl)pyrazolo[1,5-a]pyrimidin-7(4H)-one], the IC50 in test [1] and in test [2] was < 20 µM throughout.

`COc1cccc2oc(-c3c(COC4CCNC4=O)[nH]c4c(-c5ccccc5)c(C(F)(F)F)nn4c3=O)nc12` (centres unmarked) [Compound C1159, 6-(4-methoxybenzo[d]oxazol-2-yl)-5-(((2-oxopyrrolidin-3-yl)oxy)methyl)-3-phenyl-2-(trifluoromethyl)pyrazolo[1,5-a]pyrimidin-7(4H)-one]: the figures for the IC50 in test [1] and in test [2] were > 100 µM and < 20 µM, respectively.

As for `CNc1cc(OC)c2nc(-c3c(C)[nH]c4c(-c5ccccc5)c(C(F)(F)F)nn4c3=O)oc2c1` [Compound C1161, 6-(4-methoxy-6-(methylamino)benzo[d]oxazol-2-yl)-5-methyl-3-phenyl-2-(trifluoromethyl)pyrazolo[1,5-a]pyrimidin-7(4H)-one], the IC50 in test [1] and in test [2] was < 20 µM each time.

Turning to `COc1cc(N(C)C)cc2oc(-c3c(C)[nH]c4c(-c5ccccc5)c(C(F)(F)F)nn4c3=O)nc12` [Compound C1162, 6-(6-(dimethylamino)-4-methoxybenzo[d]oxazol-2-yl)-5-methyl-3-phenyl-2-(trifluoromethyl)pyrazolo[1,5-a]pyrimidin-7(4H)-one], the IC50 in test [1] and in test [2] was < 20 µM each time.

On to `COc1cc([N+](C)(C)C)cc2oc(-c3c(C)[nH]c4c(-c5ccccc5)c(C(F)(F)F)nn4c3=O)nc12` [Compound C1163, 4-methoxy-N,N,N-trimethyl-2-(5-methyl-7-oxo-3-phenyl-2-(trifluoromethyl)-4,7-dihydropyrazolo[1,5-a]pyrimidin-6-yl)benzo[d]oxazol-6-aminium], for which the IC50 in test [1] was > 100 µM; in test [2], < 20 µM.

`Cc1[nH]c2c(-c3ccccc3)c(C(F)(F)F)nn2c(=O)c1-c1nc(C(=O)O)co1` [Compound C1165, 2-(5-methyl-7-oxo-3-phenyl-2-(trifluoromethyl)-4,7-dihydropyrazolo[1,5-a]pyrimidin-6-yl)oxazole-4-carboxylic acid]: the IC50 was > 100 µM in test [1] and < 20 µM in test [2].

With `COc1cc(CO)cc2oc(-c3c(C)[nH]c4c(-c5ccccc5)c(C(F)(F)F)nn4c3=O)nc12` [Compound C1166, 6-(6-(hydroxymethyl)-4-methoxybenzo[d]oxazol-2-yl)-5-methyl-3-phenyl-2-(trifluoromethyl)pyrazolo[1,5-a]pyrimidin-7(4H)-one], the IC50 is 20 to 100 µM in test [1] and < 20 µM in test [2].

With `Cc1[nH]c2c(-c3ccccc3)c(C(F)(F)F)nn2c(=O)c1-c1ncco1` [Compound C1170, 5-methyl-6-(oxazol-2-yl)-3-phenyl-2-(trifluoromethyl)pyrazolo[1,5-a]pyrimidin-7(4H)-one], the values for the IC50 in test [1] and in test [2] were > 100 µM and < 20 µM, respectively.

For `COc1nc(N)nc2oc(-c3c(C)[nH]c4c(-c5ccccc5)c(C(F)(F)F)nn4c3=O)nc12` [Compound C1174, 6-(5-amino-7-methoxyoxazolo[5,4-d]pyrimidin-2-yl)-5-methyl-3-phenyl-2-(trifluoromethyl)pyrazolo[1,5-a]pyrimidin-7(4H)-one], the IC50 in test [1] is > 100 µM; in test [2], < 20 µM.

Regarding `COc1cccc2oc(-c3c(COCC4CNC(=O)O4)[nH]c4c(-c5ccccc5)c(C(F)(F)F)nn4c3=O)nc12` (centres unmarked) [Compound C1177, 5-(((6-(4-methoxybenzo[d]oxazol-2-yl)-7-oxo-3-phenyl-2-(trifluoromethyl)-4,7-dihydropyrazolo[1,5-a]pyrimidin-5-yl)methoxy)methyl)oxazolidin-2-one], the results for the IC50 in test [1] and in test [2] were 20 to 100 µM and < 20 µM, respectively.

On to `COc1cccc2oc(-c3c(C(=O)NCCO)[nH]c4c(-c5ccccc5)c(C(F)(F)F)nn4c3=O)nc12` [Compound C1178, N-(2-hydroxyethyl)-6-(4-methoxybenzo[d]oxazol-2-yl)-7-oxo-3-phenyl-2-(trifluoromethyl)-4,7-dihydropyrazolo[1,5-a]pyrimidine-5-carboxamide], for which the IC50 in test [1] and in test [2] was < 20 µM each time.

On to `COc1cccc2oc(-c3c(Cn4ccnc4)[nH]c4c(-c5ccccc5)c(C(F)(F)F)nn4c3=O)nc12` [Compound C1180, 5-((1H-imidazol-1-yl)methyl)-6-(4-methoxybenzo[d]oxazol-2-yl)-3-phenyl-2-(trifluoromethyl)pyrazolo[1,5-a]pyrimidin-7(4H)-one], for which the results for the IC50 in test [1] and in test [2] were > 100 µM and < 20 µM, respectively.

For the compound `Cc1[nH]c2c(-c3ccccc3)c(C#N)nn2c(=O)c1-c1nc2cc(N)ccc2o1` [Compound C1181, 6-(5-aminobenzo[d]oxazol-2-yl)-5-methyl-7-oxo-3-phenyl-4,7-dihydropyrazolo[1,5-a]pyrimidine-2-carbonitrile], the results for the IC50 in test [1] and in test [2] were > 100 µM and < 20 µM, respectively.

For `COc1cccc2oc(-c3c(COCc4cnc[nH]4)[nH]c4c(-c5ccccc5)c(C(F)(F)F)nn4c3=O)nc12` [Compound C1182, 5-(((1H-imidazol-5-yl)methoxy)methyl)-6-(4-methoxybenzo[d]oxazol-2-yl)-3-phenyl-2-(trifluoromethyl)pyrazolo[1,5-a]pyrimidin-7(4H)-one], the IC50 in test [1] is > 100 µM; in test [2], < 20 µM.

As for `CCc1[nH]c2c(-c3ccccc3)c(C(F)(F)F)nn2c(=O)c1-c1nc2c(OC)cccc2o1` [Compound C1183, 5-ethyl-6-(4-methoxybenzo[d]oxazol-2-yl)-3-phenyl-2-(trifluoromethyl)pyrazolo[1,5-a]pyrimidin-7(4H)-one], the IC50 in test [1] and in test [2] was < 20 µM in each case.

Regarding `COC[C@@H]1COC(c2c(C)[nH]c3c(-c4ccccc4)c(C(F)(F)F)nn3c2=O)=N1` [Compound C1184, (R)-6-(4-(methoxymethyl)-4,5-dihydrooxazol-2-yl)-5-methyl-3-phenyl-2-(trifluoromethyl)pyrazolo[1,5-a]pyrimidin-7(4H)-one], the IC50 in test [1] is > 100 µM; in test [2] it was < 20 µM.

Consider `COc1cccc2oc(-c3c(C(=O)NC4COC4)[nH]c4c(-c5ccccc5)c(C(F)(F)F)nn4c3=O)nc12` [Compound C1185, 6-(4-methoxybenzo[d]oxazol-2-yl)-N-(oxetan-3-yl)-7-oxo-3-phenyl-2-(trifluoromethyl)-4,7-dihydropyrazolo[1,5-a]pyrimidine-5-carboxamide], for which the IC50 is 20 to 100 µM in test [1] and < 20 µM in test [2].

The values above are taken from US10738056B2 (Aduro BioTech, Inc., priority 2017, dated 2020).
